Columns and labels:
[1] = test system: ob/ob mice; assay: 1MT treatment of ob/ob mice (drinking water); type: in vivo
Excerpt: Male C57Bl/6 Ido-1−/− mice were bought from the Jackson Laboratory (Jax) and bred in our facility. At weaning, mice were separated according to the genotype. Male ob/ob mice were bought from Janvier Laboratory at 4 weeks of age. Mice were fed with either a normal chow diet (NCD) (A03, SAFE, France) or subjected to diet-induced obesity containing 60% FAT (E15742-347, SSNIFF, Germany). High fat diet (HFD) was started at 7 weeks of age and continued for 20 weeks or less with ad libitum access to water and food. For chimerism experiment, we subjected 10 weeks old C57BL/6 WT and C57BL/6 Ido-1−/− to medullar aplasia by 9.5 gray lethal total body irradiation. We repopulated the mice with an intravenous injection of bone marrow cells isolated from femurs and tibias of male C57BL/6 WT and C57BL/6 Ido-1−/−. After 4 weeks of recovery, mice were fed a HFD for 20 weeks. In some experiments, IDO inhibitor (L-1methyl tryptophan, 1MT) (Sigma) was used at 2 mg/mL diluted in drinking water. […]
For oral glucose tolerance test (OGTT), mice were fasted overnight prior to an oral administration of 1-5 g/kg glucose. […] At 0, 15, 30, 60 min tail vein blood was collected, plasma samples were stored at −20° C. until they were analyzed for insulin concentration (Crystal Chem Inc., Downers Grove, USA). […]
HPLC Quantifications Thawed stools from mice were extracted as previously described 12. L-tryptophan (Trp) and L-kynurenine (Kyn) were measured via HPLC using a coulometric electrode array (ESA Coultronics, ESA Laboratories, Chelsford, Mass., USA)13. Quantifications were performed by referencing calibration curves obtained with internal standards. Other compounds (IAA) were quantified via liquid chromatography coupled to mass spectrometry (LC-MS) by using a Waters ACQUITY ultraperformance liquid chromatography (UPLC) system equipped with a binary solvent delivery manager and sample manager (Waters Corporation, Milford, Mass., USA) and that was coupled to a tandem quadrupole-time-of-flight (Q-TOF) mass spectrometer equipped with an electrospray interface (Waters Corporation). […]

[2] = test system: WT mice on HFD; assay: IAA supplementation in drinking water of WT mice on HFD; type: in vivo; conditions: IAA 2 mg/ml in drinking water, HFD 11 weeks, vs not supplemented, FIG. 3
Protocol: (a) feces IAA (indole acetic acid) (b) ITT, and quantification of M2-like macrophages (F4/80+CD11b+CD206+ in epiWAT) and CD45+ cells (n=5 per group) (c-d), in WT mice supplemented or not with IAA (diluted in drinking water, 2 mg/ml) and put on HFD during 11 weeks (n=9-10 per group Data are expressed as mean±sem. *P≤0.05, **p<0.001, ***p<0.0001.
For oral glucose tolerance test (OGTT), mice were fasted overnight prior to an oral administration of 1-5 g/kg glucose. Blood was sampled from the tail vein at 0, 5, 15, 30, 60, 90 and 120 min in order to assay glucose concentration (OneTouch Ultra glucometer, LifeScan Europe). At 0, 15, 30, 60 min tail vein blood was collected, plasma samples were stored at −20° C. until they were analyzed for insulin concentration (Crystal Chem Inc., Downers Grove, USA). Insulin tolerance test (ITT) was performed in mice food deprived for 5 h prior to an intraperitonial injection of 1 U/kg insulin. Blood was sampled from the tail vein at 0, 5, 15, 30, 60 and 90 min in order to assay glucose concentration. […]
The stromal vascular fraction (SVF) containing mononuclear cells and preadipocytes was extracted from adipose tissue. […] The SVF pellet was resuspended in 1 mL fluorescence-activated cell sorter (FACS) buffer. […] Samples were acquired using an Fortessa cytometer (Becton Dickinson) and analyzed with FlowJo (TreeStar) software programs.

[3] = 1MT 2 mg/mL in drinking water, vs untreated, data not shown

SMILES | body weight [1, 3] | insulin sensitivity [1, 3] | ratio of Kyn/Trp in the feces ([1]; 1MT-treated vs not treated, FIG. 1j) | adipose inflammation (M2-like macrophages and CD45+ cells in epiWAT) [2] | insulin resistance (ITT) [2]
Cn1cc(C[C@H](N)C(=O)O)c2ccccc21 [1MT, L-1methyl tryptophan] | no difference in body weight | improved insulin sensitivity | significant decrease |  | 
O=C(O)Cc1c[nH]c2ccccc12 [IAA, indole-3-acetic acid] |  |  |  | decreases | decreases insulin resistance

From patent US20210000889A1, “METHODS FOR PROGNOSING AND TREATING METABOLIC DISEASES” (INSERM (INSTITUT NATIONAL DE LA SANTÉ ET DE LA RECHERCHE …, priority 2018, published 2021)
